Measurements from patent US20090012000A1, “Anti-Viral Peptide and Use Thereof” (TOAGOSEI CO., LTD., priority 2006, published 2009).
Ends that are not written are not given here.

Columns and labels:
[1] = system: HVT (turkey herpes virus); assay: HVT multiplication suppression test in CEF cells, titer by plaque assay; format: cell-based, turkey herpes virus (FC-126 strain); details: for antiviral activity (viral multiplication suppression effect): result in words, peptide 10, 50 and 100 μM; for Ratio (relative ratio of virus titer, no peptide added = 1) / Titer: CEF cells, six days
Experimental: The antiviral activity (viral multiplication suppression effect) was examined for each sample antiviral peptide and each comparative sample peptide. In the present example, HVT (turkey herpes virus) was used as the target virus, and the titer was measured based on the plaque assay method.
That is to say, chicken embryo fibroblast (CEF) cells prepared from SPF (specific pathogen-free) embryonated hen's egg (purchased from Nisseiken Co., LTD) were monolayer-cultured at 37° C. using Leibowitz-McCoy 5A (1:1) mixed culture medium (LM medium). The culture was peeled from the culture dish by trypsin digestion and transferred to a 50 mL centrifugation tube. After centrifugal separation, the supernatant was discarded and the culture was suspended with LM medium.
HVT (FC-126 strain used as vaccine), which virus titer was measured beforehand, was diluted with this cell suspension to as to have 100 plaque forming units (PFU) or 400 PFU per 2 mL. This dilute solution was dispensed in each well of a 6-well plate, 2 mL in each. Then, the test peptides (Samples 1 to 4, Comparative Samples 1 to 4) were diluted with PBS to be at 2.1 mM, 1050 μM and 210 μM, and added to each well, 0.1 mL in each. The final concentration of each well after addition was respectively 100 μM, 50 μM and 10 μM. A well to which 0.1 mL of PBS not containing peptide was added was prepared as a reference.
Thereafter, the above 6-well plate was placed in a CO2 incubator (5% CO2), cultured at 37° C. for six days, and the number and size of HVT plaques that appeared were observed. Here, comparing with wells with no peptide added, when a drop in the number of plaques or a reduction in the size of plaques was not observed even when a peptide was added, the viral multiplication suppression effect of this peptide was determined to be none. On the other hand, a test peptide for which a well with smaller plaque number or plaque size was present, the titer of each well was measured, and the viral multiplication suppression effect (antiviral activity) was quantified by comparing with the quantity of virus with no peptide added.
For the method for measuring the HVT virus titer, cells in each well were recovered by trypsin digestion, serially diluted, mixed again with CEF cells, dispensed in a 6-well plate and cultured at 37° C., and the number of plaques appeared after six days were counted. The relative ratio of virus titer at each peptide concentration was determined with the virus titer (PFU/mL) of the well with no peptide added being 1. That is to say, the viral multiplication suppression effect of each test peptide can be compared using the value of this relative ratio (Ratio).

[2] = system: A/New Calcdonia/20/99 (H1N1) influenza virus; assay: Influenza virus multiplication inhibition assay (plaque assay) in MDCK cells; format: cell-based; details: 48 hours; for Infectivity Titer, Trial 1: control 1.1 × 10^9; for Infectivity Titer, Trial 2: control 2.1 × 10^9

Substance | antiviral activity (viral multiplication suppression effect) [1] | Ratio (relative ratio of virus titer, no peptide added = 1) ([1]; peptide 100 μM) | Infectivity Titer, Trial 1 ([2]; peptide 100 μM) | further results
EFFDAPE-COOH (EFFDAPE-OH; listed as Homo sapiens) [Comparative Sample 3, reference compound] | no viral multiplication suppression effect | – | – | –
FKIKITTAPKRYCVRPN-NH2 [Comparative Sample 4, reference compound] | no viral multiplication suppression effect | – | – | –
RKKKRKV FKIKTTAPKRYCVRPN-CONH2 (RKKKRKVFKIKTTAPKRYCVRPN-NH2) [Sample 3] | excellent antiviral activity | 0.30 | – | –
RKKKRKV FKVKTTAPKRYCVRPN-CONH2 (RKKKRKVFKVKTTAPKRYCVRPN-NH2) [Sample 6] | – | – | 3.3 × 10^8 PFU/mL | Infectivity Titer, Trial 1 ([2]; peptide 200 μM): 1.0 × 10^8 PFU/mL
RKKKRKV FKVKTTAPRRYCVRPN-CONH2 (RKKKRKVFKVKTTAPRRYCVRPN-NH2) [Sample 5] | – | – | 3.5 × 10^8 PFU/mL | Infectivity Titer, Trial 1 ([2]; peptide 50 μM): 1.0 × 10^9 PFU/mL; Infectivity Titer, Trial 2 ([2]; peptide 50 μM): 1.2 × 10^9 PFU/mL; Infectivity Titer, Trial 2 ([2]; peptide 100 μM): 6.9 × 10^8 PFU/mL
RKKKRKV-COOH (RKKKRKV-OH) [Comparative Sample 2, reference compound] | no viral multiplication suppression effect | – | – | –
RQARRNRRRRWR EFFDAPE-CONH2 (RQARRNRRRRWREFFDAPE-NH2) [Sample 1] | – | 0.90 | – | –
RQARRNRRRRWR EFFDARE-CONH2 (RQARRNRRRRWREFFDARE-NH2) [Sample 2] | – | 0.80 | – | –
RQARRNRRRRWR FKVKTTSPKKYFVRPN-CONH2 (RQARRNRRRRWRFKVKTTSPKKYFVRPN-NH2) [Sample 4] | excellent antiviral activity | 0.16 | 5.8 × 10^8 PFU/mL | Ratio (relative ratio of virus titer, no peptide added = 1) ([1]; peptide 10 μM): 1.0; Titer ([1]; peptide 10 μM): (7.6 × 10^4) PFU/mL; Ratio (relative ratio of virus titer, no peptide added = 1) ([1]; peptide 50 μM): 0.46; Titer ([1]; peptide 50 μM): (3.5 × 10^4) PFU/mL; Titer ([1]; peptide 100 μM): (1.2 × 10^4) PFU/mL; Infectivity Titer, Trial 1 ([2]; peptide 200 μM): 2.8 × 10^8 PFU/mL
RQARRNRRRRWR-COOH (RQARRNRRRRWR-OH) [Comparative Sample 1, reference compound] | no viral multiplication suppression effect | – | – | –
